Laboratory results taken from patent US12509460B2 (Skyhawk Therapeutics, Inc., priority 2019, dated 2025).
Where “and” joins values, the source holds several entries; their conditions need not be identical. Equal values may be shown once. Read-outs that look alike come from different tables or passages of the source.

Columns and labels:
MDR1 = assay: Blood-brain-barrier (BBB) penetration potential via MDCK-MDR1 permeability assay; details: dog, MDCK-MDR1, pH 7.4, MDCK-MDR1: Efflux
[1] = tested on: MDR1-MDCK cell monolayers; assay: as above
MDR1 (P-gp) = assay: as above; details: dog; for Papp A→B at 120 min, 5 μM: MDCK-MDR1, pH 7.4, MDCK-MDR1: Papp A-B; for Papp B→A at 120 min, 5 μM: MDCK-MDR1, pH 7.4, MDCK-MDR1: Papp B-A
[2] = tested on: SMN protein in spinal muscular atrophy (SMA) patient fibroblasts (GM03813, Coriell); assay: SMN protein assay, Mesoscale Discovery (MSD); format: cell-based, human; details: for EC50: read-out: SMN2 protein EC50
Method in brief: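 Absolute SMN levels were quantified by MSD against an SMN protein standard curve (1 μg/ml to 19.5 pg/ml) run on each plate. Samples were lysates of GM03813 patient fibroblasts (7000 cells/well) treated 48 hours with compound doses from 2.5 μM down to 0.6 nM.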

[3] = tested on: mHTT protein in GM04724 (CAG 70/20) Huntington's disease patient lymphoblast cells; assay: mHTT protein assay, 2B7-MW1 assay via Mesoscale Discovery (MSD); format: cell-based, human
Method in brief: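 Signal from the 2B7-MW1 antibody pair on MSD, rising with polyQ length and smaller HTT fragments, measured mHTT after 48 h compound exposure (0.6 nM–10 μM) in GM04724 cells. A parallel replicate plate gave CellTiter Glo viability.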

[4] = Quantitative splicing assay (HTT), qPCR; format: cell-based, human; details: Homo sapiens, GM04724, 24 h, GM04724 lymphoblasts, qPCR, read-out: HTT Splicing: E49-50 EC50
Procedure: Example A9: Quantitative Splicing Assay (HTT)
GM04724 (CAG 70/20) Huntington's disease patient lymphoblasts (Coriell) are plated in 96-well v-bottom plates at 50,000 cells/well. Immediately after plating, cells are dosed with compound for 24 h at concentrations ranging from 2.5 uM to 0.15 nM (0.1% DMSO). Treated cells are lysed and cDNA synthesized using the Fast Advanced Cells-to-Ct kit (Thermofisher A35378) according to the manufacturer's instructions. 2 uL of each cDNA are used in qPCR reactions to confirm the compound-induced inclusion of a cryptic exon within intron 49 of the Huntingtin (HTT) transcripts. The qPCR reactions are prepared in 384-well plates in 10 uL volume, using TagMan™ Fast Advanced Master Mix [ThermoFisher, 4444965] with primers and probes shown in the table below. Reactions are run in a Quant studio 6 qPCR instrument with default settings.

[5] = tested on: SMN FL and SMN Δ7 in spinal muscular atrophy (SMA) patient fibroblasts (GM03813, Coriell); assay: Quantitative splicing assay (SMN), qPCR; format: cell-based, human; details: Homo sapiens, Fibroblast, 24 h, SMA patient fibroblasts (GM03813), 24 h; read-out: SMN2 Splicing FL EC50
Procedure: Spinal muscular atrophy (SMA) patient fibroblasts (GM03813, Coriell) are plated in 96-well plates at 50,000 cells/well. […] Treated cells are lysed and cDNA synthesized using the Fast Advanced Cells-to-Ct kit (Thermofisher A35378) according to the manufacturer's instructions. 2 μL of each cDNA are used in qPCR reactions. […] Reactions are run in a Quant Studio 6 qPCR instrument with default settings.

[6] = SMA patient fibroblasts GM03813, 48 hours, MSD
[7] = GM04724 Huntington's disease patient lymphoblasts
[8] = SMA patient fibroblasts (GM03813), 48 hours
[9] = GM04724 (CAG 70/20) Huntington's disease patient lymphoblasts

Row | SMILES | efflux ratio at 120 min, 5 μM (MDR1; efflux ratio) | MDCK-MDR1: % Recov A-B ([1]; A-B direction) | MDCK-MDR1: % Recov B-A ([1]; B-A direction) | Papp A→B at 120 min, 5 μM (MDR1 (P-gp); A-B direction) [×10⁻⁶ cm/s] | Papp B→A at 120 min, 5 μM (MDR1 (P-gp); B-A direction) [×10⁻⁶ cm/s] | EC50 [2, 6] [nM] | EC50 [3, 7] [nM] | EC50 [4] [nM] | EC50 [5] [nM] | efflux ratio at 120 min, 5 μM (MDR1) | MDCK-MDR1: % Recov A-B ([1]; A-B) [%] | MDCK-MDR1: % Recov B-A ([1]; B-A) [%] | Papp A→B at 120 min, 5 μM (MDR1 (P-gp); A-B) [×10⁻⁶ cm/s] | Papp B→A at 120 min, 5 μM (MDR1 (P-gp); B-A) [×10⁻⁶ cm/s] | EC50 [2, 8] [nM] | also measured
1 | Cc1cnc(-c2ccc(-c3ccc(N(C)C4CC5CCC(N5)C4F)nn3)c(O)c2)o1 (single isomer, unassigned) [Compound 48B] | 4 | 67% | 84% | 6.56 | 24.5 | 0.01 to 15 | 16 to 50 | 16 to 50 | – | – | – | – | – | – | – | –
2 | CN(c1ccc(-c2ccc(-c3cnn(C)c3)cc2O)nn1)C1CC2COCC(N2)C1F (single isomer, unassigned) [Compound 80A] | 11 | 68% | 88% | 4.93 | 53.6 | 101 to 500 | 51 to 100 | 51 to 100 | – | – | – | – | – | – | – | –
3 | CN(c1ccc(-c2ccc(-c3cnn(C)c3)cc2O)nn1)[C@@H]1C[C@H]2CC(F)(F)[C@@H](C1)N2 [Compound 3A, 2-(6-(((1S,3R,5R)-6,6-difluoro-8-azabicyclo[3.2.1]octan-3-yl)(methyl)amino)pyridazin-3-yl)-5-(1-methyl-1H-pyrazol-4-yl)phenol] | 2 | 75% | 81% | 19.3 | 33.8 | 16 to 50 | 16 to 50 | 0.01 to 15 | – | – | – | – | – | – | – | –
4 | CN(c1ccc(-c2cc3c(=O)[nH]ccc3s2)nn1)[C@@H]1C[C@H]2CC[C@H](N2)[C@@H]1F [Compound 6A, 2-(6-(((1S,2S,3R,5R)-2-fluoro-8-azabicyclo[3.2.1]octan-3-yl)(methyl)amino)pyridazin-3-yl)thieno[3,2-c]pyridin-4(5H)-one] | 74 | 90% and 95% | 91% and 82% | 0.09 | 6.69 | 51 to 100 | – | 10 to 501 | – | – | – | – | – | – | – | MDCK-MDR1: Papp A-B ([1]; A-B direction): 0.06 10^−6, cm/s; MDCK-MDR1: Papp B-A ([1]; B-A direction): 7.34 10^−6, cm/s; MDCK-MDR1: Efflux ([1]; efflux ratio): 121; SMN2 protein EC50 [2, 6]: E (501 ≤ E ≤ 10.000)
5 | CN(c1ccc(-c2cc3oc(C(=O)N4CCC4)cc3cc2O)nn1)[C@H]1C[C@@H]2CC[C@H]([C@H]1F)N2C [Compound 107B, azetidin-1-yl(6-(6-(((1R,2R,3S,5S)-2-fluoro-8-methyl-8-azabicyclo[3.2.1]octan-3-yl)(methyl)amino)pyridazin-3-yl)-5-hydroxybenzofuran-2-yl)methanone] | – | – | – | – | – | – | – | – | 101 to 500 | 47 | 76 | 84 | 0.99 | 46.3 | 16 to 50 | mHTT protein EC50 [3, 9]: E (501 ≤ E ≤ 10.000)
6 | CN(c1ccc(-c2cc3oc(C(=O)N4CCC4)cc3cc2O)nn1)[C@@H]1C[C@H]2CC[C@H](N2)[C@@H]1F [Compound 112A, azetidin-1-yl(6-(6-(((1S,2S,3R,5R)-2-fluoro-8-azabicyclo[3.2.1]octan-3-yl)(methyl)amino)pyridazin-3-yl)-5-hydroxybenzofuran-2-yl)methanone] | – | – | – | – | – | – | – | – | 51 to 100 | 74 | 95 | 78 | 0.6 | 43.8 | 0.01 to 15 | EC50 [3, 9]: 51 to 100 nM
7 | Cc1nc2cc(-c3ccc(N(C)[C@H]4C[C@@H]5CC[C@@H](N5)[C@H]4F)nn3)c(O)cc2c(=O)n1CC(F)(F)F [Compound 113B, 7-(6-(((1R,2R,3S,5S)-2-fluoro-8-azabicyclo[3.2.1]octan-3-yl)(methyl)amino)pyridazin-3-yl)-6-hydroxy-2-methyl-3-(2,2,2-trifluoroethyl)quinazolin-4(3H)-one] | – | – | – | – | – | – | – | – | 16 to 50 | 232 | 101 | 123 | 0.3 | 68.4 | 0.01 to 15 | EC50 [3, 9]: 101 to 500 nM
